According to US20150133454A1, “NANOSTRUCTURED MUCOADHESIVE MICROPARTICLES” (SNU R&DB FOUNDATION, priority 2012, published 2015):

What was measured:
[1] = Pharmacokinetic analysis: brimonidine concentration in aqueous humor; assay type: in vivo; details: brimonidine in rabbit aqueous humor after topical administration
Method: Seven different formulations loaded with brimonidine prepared as described in Example 6-1 were topically administered to the rabbit eye and pharmacokinetics of the drug administered was examined as described below from the aqueous humor taken at a specified time in FIG. 12 after the administration. Specifically, the rabbit was generally anesthetized as described in Example 4 at the specified time after the administration and 50 μl of Aqueous humor (AH) was obtained from the rabbit eye using 1 ml syringe with 30 gauge needle, which was then used for SPE (Solid Phase Extraction) and HPLC analysis. First, Brimonidine Stock solution was prepared at the final concentration of […] in distilled water, from which 2000, 1000, 800, 600, 400, 200, 100, and 50 μg/ml of Brimonidine solution were prepared. For the calibration, 25 μl of AH from no treatment control, 25 μl Stock Solution (2000, 1000, 800, 600, 400, 200, 100, 50 μg/ml), 50 μl IS (Internal standard, clonidine)(50 μg/ml) and 200 μl of PBS (pH=8) were mixed and centrifuged at 11000×g for 10 min. and 100 μl of the supernatant was used for SPE analysis.
For the sample from the rabbit eye treated with the drug, 50 μl of AH, 50 μl of IS (50 μg/ml) and 200 μl of PBS (pH=8) were mixed and centrifuged at 11000×g for 10 min and 100 μl of the supernatant was used for SPE analysis. SPE (Bond-Eluct-C18, 100 mg, 1 ml, Agilent Technologies) analysis was proceed as below. Before the sample injection, it was washed with MeOH (1 ml) and distilled water (1 ml). Each sample for the calibration and for the analysis was then injected and washed with 1 ml of PBS and eluted with 1 ml of 70% acetonitrile, followed by evaporation for 3 hrs at 40° C. using SpeedVac (Thermo Savant SPD 2010 SpeedVac System, Thermo Electron Corporation, USA). […]
HPLC (Agilent 1260 Series, Agilent Technologies, CA, USA) was used for determining the concentration, in which 50 μl of sample was injected and analyzed under the following condition: Mobile phase=20 mM phosphate buffer (pH=2.5) : MeOH=9:1, flow rate 1 ml/min, 248 nm

[2] = tested on: Intra ocular pressure (IOP) of the rabbit eye; assay: Therapeutic effect: decrease in IOP after administration of drug-loaded formulations; assay type: in vivo; details: topical, 556.5 μg dorzolamide (25 μl of Trusopt 2%)
Method: The formulation of microparticles as prepared in Examples 6-1 and 6-2 was administered to the rabbit eye according to Example 4 and IOP was measured as described in Example 5.
For testing therapeutic effect by BRT, a total of 7 samples were used. […] For testing therapeutic effect by dorzolamide, 25 μl of Trusopt 2% (MSD, USA), PVA tablet (just containing 556.5 μg of dorzolamide 556.5 μg without any microparticles) and four different types of microparticles prepared as described above containing 556.5 μg dorzolamide were used for the test.
Then, a device for measuring IOP called Tonopen as described in Example 5 was used to measure IOP before the administration and 0.5 h˜13 h after the administration to confirm the efficacy of the drug.

Row | Compound | AUC [1] [ng·h/mL] | Cmax [1] [ng/mL] | tmax [1] [min] | time for which the formulation was effective in decreasing IOP (Dorzolamide) [2] [h]
1 | Brimonidine Tartrate [BRT solution] | 795 | 692 | 40 | 
2 | CCN[C@H]1C[C@H](C)S(=O)(=O)c2sc(S(N)(=O)=O)cc21 [Dorzolamide solution, Dorzolamide] |  |  |  | 5
